Assays:
[1] = test system: normal NK cells expanded with K562-aAPC; test: percent inhibition of viability; higher = more inhibition; details: 72 h, IL-2 2.5 ng/mL
Experimental: (§1)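 Drug sensitivity and resistance testing on K562-aAPC-expanded normal NK cells: 5 concentrations (10-fold steps over a 10,000-fold range), 72 h at 37 °C, viability by CellTiter-Glo normalised to DMSO and benzethonium chloride controls; DSS from the fitted curve.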

DERL-7 (IL-2 2.5 ng/mL) [2] = test: as above; details: 72 h
IMC-1 (IL-2 20 ng/mL) [3] = test: as above; details: 72 h
KAI3 (IL-2 2.5 ng/mL) [4] = test: as above; details: 72 h
KHYG-1 (IL-2 2.5 ng/mL) [5] = test: as above; details: 72 h
NK-92 (IL-2 2.5 ng/mL) [6] = test: as above; details: 72 h
NK-YS (IL-2 2.5 ng/mL) [7] = test: as above; details: 72 h
NKL (IL-2 2.5 ng/mL) [8] = test: as above; details: 72 h
SNK-6 (IL-2 2.5 ng/mL) [9] = test: as above; details: 72 h
YT (IL-2 2.5 ng/mL) [10] = test: as above; details: 72 h
[11] = test system: normal primary NK cells, pool 1 (3 donors) (IL-2 2.5 ng/mL); test: as above; details: 72 h
[12] = test system: normal primary NK cells, pool 1 (3 donors), resting (IL-2 0 ng/mL); test: as above; details: 72 h
[13] = test system: normal primary NK cells, pool 2 (3 donors) (IL-2 2.5 ng/mL); test: as above; details: 72 h
[14] = test system: normal primary NK cells, pool 3 (3 donors) (IL-2 2.5 ng/mL); test: as above; details: 72 h
[15] = test system: normal NK cells expanded with K562-aAPC; test: drug sensitivity score (DSS) (DSS units); higher = more sensitive; extreme values may be limits of the assay; details: 72 h; IL-2 2.5 ng/mL
Experimental: as §1

DERL-7 (IL-2 2.5 ng/mL) [16] = test: as above; details: 72 h
IMC-1 (IL-2 20 ng/mL) [17] = test: as above; details: 72 h
KAI3 (IL-2 2.5 ng/mL) [18] = test: as above; details: 72 h
KHYG-1 (IL-2 2.5 ng/mL) [19] = test: as above; details: 72 h
NK-92 (IL-2 2.5 ng/mL) [20] = test: as above; details: 72 h
NK-YS (IL-2 2.5 ng/mL) [21] = test: as above; details: 72 h
NKL (IL-2 2.5 ng/mL) [22] = test: as above; details: 72 h
SNK-6 (IL-2 2.5 ng/mL) [23] = test: as above; details: 72 h
YT (IL-2 2.5 ng/mL) [24] = test: as above; details: 72 h
[25] = test system: normal primary NK cells, pool 1 (3 donors) (IL-2 2.5 ng/mL); test: as above; details: 72 h
[26] = test system: normal primary NK cells, pool 1 (3 donors), resting (IL-2 0 ng/mL); test: as above; details: 72 h
[27] = test system: normal primary NK cells, pool 2 (3 donors) (IL-2 2.5 ng/mL); test: as above; details: 72 h
[28] = test system: normal primary NK cells, pool 3 (3 donors) (IL-2 2.5 ng/mL); test: as above; details: 72 h

C[C@]12CC[C@@H]3c4ccc(O)cc4C[C@@H](CCCCCCCCC[S+]([O-])CCCC(F)(F)C(F)(F)F)[C@H]3[C@@H]1CC[C@@H]2O (stereo partly drawn) [Fulvestrant] (max concentration tested 1000 nM)
percent inhibition of viability [%]
Details | 0.1 nM | 1 nM | 10 nM | 100 nM | 1000 nM
DERL-7 (IL-2 2.5 ng/mL) [2] | -6.65 | 4.87 | 1.14 | -1.33 | 2.61
IMC-1 (IL-2 20 ng/mL) [3] | -8.22 | -3.8 | -1.67 | -1.37 | 16.7
KAI3 (IL-2 2.5 ng/mL) [4] | -10.2 | -0.09 | 8.43 | 5.9 | 26.5
KHYG-1 (IL-2 2.5 ng/mL) [5] | -10.8 | -4.41 | -2.37 | -6.26 | 7.16
NK-92 (IL-2 2.5 ng/mL) [6] | -8.22 | -4.79 | -0.7 | -0.61 | 35.1
NK-YS (IL-2 2.5 ng/mL) [7] | -4.05 | -5.76 | -3.52 | 0.56 | 15.3
NKL (IL-2 2.5 ng/mL) [8] | -3.73 | 1.23 | 1.02 | 9.49 | 38.2
SNK-6 (IL-2 2.5 ng/mL) [9] | -16.9 | 6.87 | -25.7 | -23.9 | -13.9
YT (IL-2 2.5 ng/mL) [10] | -6.18 | 3.96 | 7.53 | -1.76 | 28.7
[1] | -7.38 | -10.5 | -9.28 | -0.53 | 6.13
[11] | -3.4 | -8.82 | 2.76 | -0.05 | -2.99
[12] | 7.52 | -6.84 | 15.3 | 7.9 | 31.3
[13] | -0.86 | -4.87 | 4.79 | 2.49 | 3.75
[14] | 6.08 | 3.62 | 2.89 | -5.25 | -3.36

Details | drug sensitivity score
DERL-7 (IL-2 2.5 ng/mL) [16] | 0
IMC-1 (IL-2 20 ng/mL) [17] | 0.29
KAI3 (IL-2 2.5 ng/mL) [18] | 1.68
KHYG-1 (IL-2 2.5 ng/mL) [19] | 0
NK-92 (IL-2 2.5 ng/mL) [20] | 1.6
NK-YS (IL-2 2.5 ng/mL) [21] | 0.29
NKL (IL-2 2.5 ng/mL) [22] | 3.35
SNK-6 (IL-2 2.5 ng/mL) [23] | 0
YT (IL-2 2.5 ng/mL) [24] | 1.09
[15] | 0
[25] | 0
[26] | 2.33
[27] | 0
[28] | 0

O=C(NOCCO)c1ccc2cncn2c1Nc1ccc(I)cc1F [GDC-0623] (max concentration tested 2500 nM)
percent inhibition of viability [%]
Details | 0.25 nM | 2.5 nM | 25 nM | 250 nM | 2500 nM
DERL-7 (IL-2 2.5 ng/mL) [2] | 1.53 | 2.87 | 4.11 | 20.2 | 49.3
IMC-1 (IL-2 20 ng/mL) [3] | -4.83 | -0.98 | -7.63 | -7.39 | -5.55
KAI3 (IL-2 2.5 ng/mL) [4] | -1.35 | 0.84 | 4.63 | 16.2 | 24.8
KHYG-1 (IL-2 2.5 ng/mL) [5] | -2.63 | 1.52 | 26.2 | 53.6 | 53.1
NK-92 (IL-2 2.5 ng/mL) [6] | -2.15 | -3.76 | -6.69 | -7.14 | -20.9
NK-YS (IL-2 2.5 ng/mL) [7] | -3.81 | -3.05 | 2.89 | 12.4 | 10.4
NKL (IL-2 2.5 ng/mL) [8] | -5.9 | -3.61 | 37.9 | 65.4 | 62.6
SNK-6 (IL-2 2.5 ng/mL) [9] | 6.88 | -4.38 | -13.8 | -14.5 | -33.3
YT (IL-2 2.5 ng/mL) [10] | 0.15 | -1.83 | -0.28 | 6.96 | -0.89
[1] | -1.46 | -4.58 | 0.15 | 3.69 | -1.38
[11] | -9.21 | -4.95 | 0.24 | 3.46 | 15.2
[12] | -7.6 | 7.27 | 7.92 | 9.81 | 15.9
[13] | 0.23 | -3.52 | 5.29 | 8.89 | 14.6
[14] | -5.35 | -2.96 | -2.99 | 19.2 | 1.26

Details | drug sensitivity score
DERL-7 (IL-2 2.5 ng/mL) [16] | 4.82
IMC-1 (IL-2 20 ng/mL) [17] | 0.89
KAI3 (IL-2 2.5 ng/mL) [18] | 2.53
KHYG-1 (IL-2 2.5 ng/mL) [19] | 13
NK-92 (IL-2 2.5 ng/mL) [20] | 0.89
NK-YS (IL-2 2.5 ng/mL) [21] | 0.81
NKL (IL-2 2.5 ng/mL) [22] | 16.7
SNK-6 (IL-2 2.5 ng/mL) [23] | 0
YT (IL-2 2.5 ng/mL) [24] | 0
[15] | 0
[25] | 0.57
[26] | 0.97
[27] | 0.54
[28] | 0

From the supplement of paper PMC5908809
